According to patent US6977262B2, “Dihydropyrazolopyridine compounds and pharmaceutical use thereof” (Mitsubishi Pharma Corporation, priority 2001, dated 2005):

target: rabbit GSK-3β (Oryctolagus cuniculus, UniProt G1T8E2); experiment: GSK-3β-inhibitory activity (phosphorylation of CREB phosphopeptide, [γ-32P]ATP, scintillation counting); format: biochemical; details: rabbit GSK-3β (0.5 unit), 30° C. for 20 minutes, Table 1
Procedure: CREB phosphopeptide ([…]), rabbit GSK-3β (0.5 unit), ATP ([…]), [γ-^32P]ATP (12.3 kBq) and a test compound were reacted in a GSK-3β buffer solution (25 μL) (20 mmol/L Tris-HCl (pH 7.5), 10 mmol/L magnesium chloride, 5 mmol/L dithiothreitol) containing 1% dimethyl sulfoxide, at 30° C. for 20 minutes. The reaction product (10 μL) was adsorbed on a P81 ion-exchange paper, and the paper was washed with phosphoric acid (100 mmol/L) and measured for cpm on a scintillation counter.
CREB Phosphopeptide is Lys-Arg-Arg-Glu-Ile-Leu-Ser-Arg-Arg-Pro-Ser(P)-Tyr-Arg.

Chain of rabbit GSK-3β (G1T8E2 1-432): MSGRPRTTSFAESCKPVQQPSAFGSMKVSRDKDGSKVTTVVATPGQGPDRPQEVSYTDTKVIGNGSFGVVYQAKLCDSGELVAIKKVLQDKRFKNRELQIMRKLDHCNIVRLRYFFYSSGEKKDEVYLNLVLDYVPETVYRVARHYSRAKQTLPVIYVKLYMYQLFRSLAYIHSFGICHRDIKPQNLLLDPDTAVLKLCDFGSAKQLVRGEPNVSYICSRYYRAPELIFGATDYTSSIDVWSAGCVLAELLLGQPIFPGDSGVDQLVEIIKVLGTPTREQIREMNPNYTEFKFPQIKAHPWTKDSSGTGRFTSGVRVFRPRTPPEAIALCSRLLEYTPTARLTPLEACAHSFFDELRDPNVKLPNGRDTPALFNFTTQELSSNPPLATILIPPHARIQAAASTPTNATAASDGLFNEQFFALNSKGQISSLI

Structure (SMILES)	IC50 [nM]
CN1CCC(C2=C(C#N)C(c3cccc4nonc34)c3c[nH]nc3N2)CC1 (stereo not shown) [Example 1003, 4-(2,1,3-Benzoxadiazol-4-yl)-5-cyano-4,7-dihydro-6-(1-methylpiperidin-4-yl)-2H-pyrazolo[3,4-b]pyridine]	2.5
N#CC1=C(C2CCCCN2)Nc2n[nH]cc2C1c1cccc2nonc12 (stereo not shown) [Example 1008, 4-(2,1,3-Benzoxadiazol-4-yl)-5-cyano-4,7-dihydro-6-(piperidin-2-yl)-2H-pyrazolo[3,4-b]pyridine]	3.7
CN1CCOC(C2=C(C#N)C(c3cccc4nonc34)c3c[nH]nc3N2)C1 (stereo not shown) [Example 1011, 4-(2,1,3-Benzoxadiazol-4-yl)-5-cyano-4,7-dihydro-6-(4-methylmorpholin-2-yl)-2H-pyrazolo[3,4-b]pyridine]	14
CN(C)C1CCC(C2=C(C#N)C(c3cccc4nonc34)c3c[nH]nc3N2)CC1 (stereo not shown) [Example 1023, 4-(2,1,3-Benzoxadiazol-4-yl)-5-cyano-4,7-dihydro-6-(4-(N,N-dimethylamino)cyclohexyl)-2H-pyrazolo[3,4-b]pyridine]	4.1

tested on: not given; experiment: not given; details: not given

Structure (SMILES)	melting point
CC(=O)N1CC=C(C2=C(C#N)C(c3cccc4nonc34)c3c[nH]nc3N2)CC1 (stereo not shown) [Example 1027, 6-(1-Acetyl-1,2,3,6-tetrahydropyridin-4-yl)-4-(2,1,3-benzoxadiazol-4-yl)-5-cyano-4,7-dihydro-2H-pyrazolo[3,4-b]-pyridine]	237 °C
CS(=O)(=O)N1CCC(C2=C(C#N)C(c3cccc4nonc34)c3c[nH]nc3N2)CC1 (stereo not shown) [Example 1029, 4-(2,1,3-Benzoxadiazol-4-yl)-5-cyano-4,7-dihydro-6-(1-methanesulfonylpiperidin-4-yl)-2H-pyrazolo[3,4-b]pyridine]	243 °C
N#CC1=C(C2CCN(C(=N)N)CC2)Nc2n[nH]cc2C1c1cccc2nonc12 (stereo not shown) [Example 1031, 4-(2,1,3-Benzoxadiazol-4-yl)-5-cyano-4,7-dihydro-6-(1-guanylpiperidin-4-yl)-2H-pyrazolo[3,4-b]pyridine]	> 270 °C
CC(=O)N1CCCC(C2=C(C#N)C(c3cccc4nonc34)c3c[nH]nc3N2)C1 (stereo not shown) [Example 1032, 6-(1-Acetylpiperidin-3-yl)-4-(2,1,3-benzoxadiazol-4-yl)-5-cyano-4,7-dihydro-2H-pyrazolo[3,4-b]pyridine]	219 °C
CCN1CCC(C2=C(C#N)C(c3cccc4nonc34)c3c[nH]nc3N2)CC1 (stereo not shown) [Example 1033, 4-(2,1,3-Benzoxadiazol-4-yl)-5-cyano-4,7-dihydro-6-(1-ethylpiperidin-4-yl)-2H-pyrazolo[3,4-b]pyridine]	231 °C
CCCN1CCC(C2=C(C#N)C(c3cccc4nonc34)c3c[nH]nc3N2)CC1 (stereo not shown) [Example 1034, 4-(2,1,3-Benzoxadiazol-4-yl)-5-cyano-4,7-dihydro-6-(1-propylpiperidin-4-yl)-2H-pyrazolo[3,4-b]pyridine]	246 °C
CC(C)N1CCC(C2=C(C#N)C(c3cccc4nonc34)c3c[nH]nc3N2)CC1 (stereo not shown) [Example 1035, 4-(2,1,3-Benzoxadiazol-4-yl)-5-cyano-4,7-dihydro-6-(1-iso-propylpiperidin-4-yl)-2H-pyrazolo[3,4-b]pyridine]	260 °C
CC(C)(C)OC(=O)N1CCC(C2=C(C#N)C(c3cccc(C#N)c3Br)c3c[nH]nc3N2)CC1 (stereo not shown) [Example 1036, 4-(2-Bromo-3-cyanophenyl)-6-(1-t-butoxycarbonylpiperidin-4-yl)-5-cyano-4,7-dihydro-2H-pyrazolo[3,4-b]pyridine]	> 270 °C
N#CC1=C(C2CCNCC2)Nc2n[nH]cc2C1c1cccc(C#N)c1Br (stereo not shown) [Example 1037, 4-(2-Bromo-3-cyanophenyl)-5-cyano-4,7-dihydro-6-(piperidin-4-yl)-2H-pyrazolo[3,4-b]pyridine]	> 270 °C
CN1CCC(C2=C(C#N)C(c3cccc(C#N)c3Br)c3c[nH]nc3N2)CC1 (stereo not shown) [Example 1038, 4-(2-Bromo-3-cyanophenyl)-5-cyano-4,7-dihydro-6-(1-methylpiperidin-4-yl)-2H-pyrazolo[3,4-b]pyridine]	> 270 °C
CC(C)(C)OC(=O)N1CCCC(C2=C(C#N)C(c3cccc(C#N)c3Br)c3c[nH]nc3N2)C1 (stereo not shown) [Example 1039, 4-(2-Bromo-3-cyanophenyl)-6-(1-t-butoxycarbonylpiperidin-3-yl)-5-cyano-4,7-dihydro-2H-pyrazolo[3,4-b]pyridine]	238 °C
CC(C)(C)OC(=O)N1CCOC(C2=C(C#N)C(c3cccc(C#N)c3Br)c3c[nH]nc3N2)C1 (stereo not shown) [Example 1044, 4-(2-Bromo-3-cyanophenyl)-6-(4-t-butoxycarbonylmorpholin-2-yl)-5-cyano-4,7-dihydro-2H-pyrazolo[3,4-b]pyridine]	219 °C
N#CC1=C(C2=CCNCC2)Nc2n[nH]cc2C1c1cccc(C#N)c1Br (stereo not shown) [Example 1047, 4-(2-Bromo-3-cyanophenyl)-5-cyano-4,7-dihydro-6-(1,2,3,6-tetrahydropyridin-4-yl)-2H-pyrazolo[3,4-b]pyridine]	226 °C
CN1CC=C(C2=C(C#N)C(c3cccc(C#N)c3Br)c3c[nH]nc3N2)CC1 (stereo not shown) [Example 1048, 4-(2-Bromo-3-cyanophenyl)-5-cyano-4,7-dihydro-6-(1-methyl-1,2,3,6-tetrahydropyridin-4-yl)-2H-pyrazolo[3,4-b]pyridine]	233 °C
CC(=O)N1CCC(C2=C(C#N)C(c3cccc(C#N)c3Br)c3c[nH]nc3N2)CC1 (stereo not shown) [Example 1051, 6-(1-Acetylpiperidin-4-yl)-4-(2-bromo-3-cyanophenyl)-5-cyano-4,7-dihydro-2H-pyrazolo[3,4-b]pyridine]	> 280 °C
N#CC1=C(C2CCN(C(=O)c3ccccc3)CC2)Nc2n[nH]cc2C1c1cccc(C#N)c1Br (stereo not shown) [Example 1052, 6-(1-Benzoylpiperidin-4-yl)-4-(2-bromo-3-cyanophenyl)-5-cyano-4,7-dihydro-2H-pyrazolo[3,4-b]pyridine]	> 280 °C
CS(=O)(=O)N1CCC(C2=C(C#N)C(c3cccc(C#N)c3Br)c3c[nH]nc3N2)CC1 (stereo not shown) [Example 1053, 4-(2-Bromo-3-cyanophenyl)-5-cyano-4,7-dihydro-6-(1-methanesulfonylpiperidin-4-yl)-2H-pyrazolo[3,4-b]pyridine]	> 280 °C
CC(C)(C)OC(=O)N1CCC(C2=C(C#N)C(c3ccccc3Cl)c3c[nH]nc3N2)CC1 (stereo not shown) [Example 1054, 6-(1-t-Butoxycarbonylpiperidin-4-yl)-4-(2-chlorophenyl)-5-cyano-4,7-dihydro-2H-pyrazolo[3,4-b]pyridine]	> 280 °C
N#CC1=C(C2CCNCC2)Nc2n[nH]cc2C1c1ccccc1Cl (stereo not shown) [Example 1055, 4-(2-Chlorophenyl)-5-cyano-4,7-dihydro-6-(piperidin-4-yl)-2H-pyrazolo[3,4-b]pyridine]	221 °C
CC(=O)CC1=C(C#N)C(c2cccc3nonc23)c2c[nH]nc2N1 (stereo not shown) [Example 1061, 6-Acetylmethyl-4-(2,1,3-benzoxadiazol-4-yl)-5-cyano-4,7-dihydro-2H-pyrazolo[3,4-b]pyridine]	200 °C
N#CC1=C(C2CCCCC2=O)Nc2n[nH]cc2C1c1cccc(C#N)c1Br (stereo not shown) [Example 1062, 4-(2-Bromo-3-cyanophenyl)-5-cyano-4,7-dihydro-6-(2-oxocyclohexan-1-yl)-2H-pyrazolo[3,4-b]pyridine]	273 °C
N#CC1=C(C2CCCN2)Nc2n[nH]cc2C1c1cccc(C#N)c1Br (stereo not shown) [Example 1068, 4-(2-Bromo-3-cyanophenyl)-5-cyano-6-(pyrrolidin-2-yl)-4,7-dihydro-2H-pyrazolo[3,4-b]pyridine]	> 240 °C
N#CC1=C(C2CCCN2)Nc2n[nH]cc2C1c1cccc2nonc12 (stereo not shown) [Example 1070, 4-(2,1,3-Benzoxadiazol-4-yl)-5-cyano-4,7-dihydro-6-(pyrrolidin-2-yl)-2H-pyrazolo[3,4-b]pyridine]	> 240 °C
N#CC1=C(CN2C(=O)c3ccccc3C2=O)Nc2n[nH]cc2C1c1ccccc1Cl (stereo not shown) [Example 1079, 4-(2-Chlorophenyl)-5-cyano-4,7-dihydro-6-phthalimidomethyl-2H-pyrazolo[3,4-b]pyridine]	> 250 °C
CC(=O)C1=C(C#N)C(c2ccccc2Cl)c2c[nH]nc2N1 (stereo not shown) [Example 1080, 6-Acetyl-4-(2-chlorophenyl)-5-cyano-4,7-dihydro-2H-pyrazolo[3,4-b]pyridine]	225 to 228 °C (dec.)
CC(=O)C1=C(C#N)C(c2cccc(C#N)c2Br)c2c[nH]nc2N1 (stereo not shown) [Example 1081, 6-Acetyl-4-(2-bromo-3-cyanophenyl)-5-cyano-4,7-dihydro-2H-pyrazolo[3,4-b]pyridine]	> 230 °C
CC(=O)C1=C(C#N)C(c2cccc3nonc23)c2c[nH]nc2N1 (stereo not shown) [Example 1082, 6-Acetyl-4-(2,1,3-benzoxadiazol-4-yl)-5-cyano-4,7-dihydro-2H-pyrazolo[3,4-b]pyridine]	230 °C (dec.)
N#CC1=C(C2CC(=O)N(Cc3ccccc3)C2)Nc2n[nH]cc2C1c1ccccc1Cl (stereo not shown) [Example 1083, 6-(1-Benzyl-2-oxopyrrolidin-4-yl)-4-(2-chlorophenyl)-5-cyano-4,7-dihydro-2H-pyrazolo[3,4-b]pyridine]	> 230 °C
CCCC1=C(c2ccccn2)C(c2cccc(C#N)c2Br)c2c[nH]nc2N1 (stereo not shown) [Example 1084, 4-(2-Bromo-3-cyanophenyl)-5-(pyridin-2-yl)-4,7-dihydro-6-propyl-2H-pyrazolo[3,4-b]pyridine]	205 to 208 °C (dec.)
N#CC1=C(C2CCNC2)Nc2n[nH]cc2C1c1ccccc1Cl (stereo not shown) [Example 1086, 4-(2-Chlorophenyl)-5-cyano-4,7-dihydro-6-(pyrrolidin-3-yl)-2H-pyrazolo[3,4-b]pyridine]	210 to 215 °C (dec.)
